The source of these data is ChEMBL document CHEMBL4402572, “Development of Benzenesulfonamide Derivatives as Potent Glutathione Transferase Omega-1 Inhibitors” (J Med Chem, 2020).

Each structure is given as a SMILES string. Values after ≈ are worked out from the molar mass of the structure shown. A value given as a limit tells only on which side of the number the result lay.

Data set [1] has as its target T1, Glutathione S-transferase omega-1 (Homo sapiens, UniProt P78417).
T1 sequence (P78417 whole entry): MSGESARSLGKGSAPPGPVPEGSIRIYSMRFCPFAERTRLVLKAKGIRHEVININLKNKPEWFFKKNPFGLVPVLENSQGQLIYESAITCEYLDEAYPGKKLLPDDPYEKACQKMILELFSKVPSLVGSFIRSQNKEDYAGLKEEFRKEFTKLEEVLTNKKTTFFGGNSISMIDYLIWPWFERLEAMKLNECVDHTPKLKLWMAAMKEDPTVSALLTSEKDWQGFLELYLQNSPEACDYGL
As to the kind of experiment: Inhibition of recombinant GSTO1-1 (unknown origin) expressed in Escherichia coli using S-(4-nitrophenacyl)glutathione as substrate preincubated for 2 mins followed by substrate addition by 4-NPG assay.

Data set [2] deals with T1, Glutathione S-transferase omega-1. As to the kind of experiment: Inhibition of recombinant GSTO1-1 (unknown origin) expressed in Escherichia coli assessed as inhibitor constant using S-(4-nitrophenacyl)glutathione as substrate preincubated for 1 to 6 mins followed by substrate addition by spectrophotmetric analysis.
Data set [3] can be described thus: Drug concentration in Swiss mouse plasma at 30 mg/kg, ip measured up to 4 hrs post dose by UPLC-MS analysis. In kind it is ADME, organism-based.
Data set [4] concerns the target T2, Glutathione S-transferase omega-1 (Mus musculus) (UniProt O09131).
T2 sequence (whole entry): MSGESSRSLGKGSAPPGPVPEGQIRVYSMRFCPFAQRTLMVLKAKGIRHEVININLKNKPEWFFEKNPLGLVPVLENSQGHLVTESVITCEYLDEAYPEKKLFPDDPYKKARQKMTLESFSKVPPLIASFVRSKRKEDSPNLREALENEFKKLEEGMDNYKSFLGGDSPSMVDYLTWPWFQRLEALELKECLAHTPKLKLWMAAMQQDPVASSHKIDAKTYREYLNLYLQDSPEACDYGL
As to the kind of experiment: Inhibition of GSTO1-1 in mouse bone marrow derived macrophage cells assessed as reduction in LPS-induced IL-1beta release by measuring IL1 beta level at 5 uM pretreated with LPS for 3 hrs followed by compound addition and measured after 1 hr by ELISA relative to control. The arrangement: scale not given: the % may be the effect or the level left.

A short description of data set [5]: Cmax in Swiss mouse at 30 […], ip measured at 5 mins post dose by UPLC-MS analysis. The conditions noted are these: in vivo. The arrangement: route intraperitoneal. In kind it is ADME, organism-based.
Data set [6] addresses T3, Glutathione S-transferase omega-1 (Homo sapiens) (UniProt P78417).
T3 sequence (whole entry): T1 sequence (P78417 whole entry)
Description: Inhibition of recombinant GSTO1-1 (unknown origin) expressed in Escherichia coli assessed as Kinact using S-(4-nitrophenacyl)glutathione as substrate preincubated for 1 to 6 mins followed by substrate addition by spectrophotmetric analysis

Data set [7] can be described thus: Half life in Swiss mouse at 30 mg/kg, ip after 0.083 to 24 hrs by UPLC-MS analysis. The format is ADME, organism-based. Conditions: in vivo.
Data set [8] in a line: Drug concentration in Swiss mouse plasma at 30 mg/kg, ip measured at 1 hr post dose by UPLC-MS analysis. The format is ADME, organism-based.
A short description of data set [9]: Drug level in Swiss mouse plasma at 30 mg/kg, ip after 5 mins by UPLC-MS analysis. In kind it is ADME, organism-based.
A short description of data set [10]: Kinetic solubility of compound in water after 30 mins by nephelometry. In kind it is physicochemical. Conditions: read-out: Kinetic_solubility.
Data set [11] is described as follows: Half life in mouse liver microsomes at 1 uM incubated for 60 mins in presence of NADPH by UPLC-MS analysis. The format is ADME, Microsome.
Data set [12] in a line: Stability in mouse liver microsomes assessed as drug degradation at 1 uM incubated for 60 mins in absence of NADPH by UPLC-MS analysis. The format is ADME, Microsome. The conditions noted are these: 1 h. In general terms: Liver microsomes are a subcellular fraction often used to study metabolism.
Data set [13] is described as follows: Half life in human liver microsomes at 1 uM incubated for 60 mins in presence of NADPH by UPLC-MS analysis. The format is ADME, Microsome.
A short description of data set [14]: Stability in human liver microsomes assessed as drug degradation at 1 uM incubated for 60 mins in absence of NADPH by UPLC-MS analysis. Conditions: 1 h. The format is ADME, Microsome.
Data set [15] is described as follows: Kinetic solubility of compound in pH 7.4 phosphate buffer solution after 30 mins by nephelometry. In kind it is physicochemical. Conditions: read-out: Kinetic_solubility.
Data set [16] is described as follows: Drug concentration in Swiss mouse plasma at 30 mg/kg, ip measured up to 2 hrs post dose by UPLC-MS analysis. The format is ADME, organism-based.

In general, IC50 refers to the point on the concentration scale where inhibition reaches its midpoint. Usually Ki stands for a dissociation constant, usually derived from enzyme kinetics or from competition with a known ligand. The Cmax is the highest concentration seen after dosing. Broadly, the half-life is the time needed for the level to fall by half in the phase considered.

Take `CN(C)S(=O)(=O)c1cc(NC(=O)CCCl)ccc1Cl`: the IC50 in [1] is above 10 µM.
On the same count and under the same terms, next, `C/C=C/C(=O)Nc1ccc(Cl)c(S(=O)(=O)N(C)C)c1`: above 100 µM; `O=C(CCl)Nc1ccc(Cl)c(S(=O)(=O)NCC2CCCO2)c1` (stereo not given): 0.2 µM.
Same read-out and setting: the same measure for `CN(C)S(=O)(=O)c1cc(NC(=O)CF)ccc1Cl`: above 100 µM; for `O=C(CCl)Nc1ccc(Cl)c(S(=O)(=O)NCCO)c1`: 0.7 µM; for `CN(C)S(=O)(=O)c1cc(NC(=O)CCl)ccc1I`: 0.13 µM.
Regarding `O=C(CCl)Nc1ccc(Cl)c(S(=O)(=O)NC2CCOC2)c1` (stereo not given), the IC50 in [1] turned out to be 0.34 µM.
Still for that read-out and setting: next, `CN(C)S(=O)(=O)c1cc(NCC#N)ccc1Cl`: above 100 µM; `CN(C)S(=O)(=O)c1cc(/C=C/S(=O)(=O)F)ccc1Cl`: above 10 µM.
Consider `CNS(=O)(=O)c1cc(NC(=O)CCl)ccc1Cl`, for which, in data set [1], the IC50 was 0.58 µM.
On the same count and under the same terms, the same measure for `CC(=O)C(=O)Nc1ccc(Cl)c(S(=O)(=O)N(C)C)c1`: above 10 µM.
With `O=C(CCl)Nc1ccc(C(F)(F)F)c(S(=O)(=O)N2CCOCC2)c1`, the Ki in data set [2] is 0.61 µM. The molecule also returned a concentration at 4 h in [3] of 0.0065 µM. The Activity in data set [4] stood at 3.4%. For the same molecule, in data set [1], the IC50 was 0.25 µM. In addition, in data set [5], the Cmax is 6.37 µM. The same molecule displayed a Kinact in data set [6] of 0.85 min⁻¹. In addition, the half-life in [7] was 84 min.
Regarding `O=C(CCl)Nc1ccc(Cl)c(S(=O)(=O)N2CCOCC2)c1`, in data set [2], the inhibition constant (Ki) came to 6.7 µM. In addition, the concentration at 1 h in data set [8] was found to be 0.0071 µM. Further, the Activity in [4] worked out at 24.3%. Also, the IC50 in data set [1] amounted to 0.16 µM. In data set [6], this molecule registered a Kinact of 8.1 min⁻¹. In data set [9], this molecule had a concentration at 5 min of 3.87 µM.
On to `CN(C)S(=O)(=O)c1cc(CCCS(=O)(=O)F)ccc1Cl`, for which the IC50 in [1] was 3.2 µM.
Consider `CC(Cl)C(=O)Nc1ccc(Cl)c(S(=O)(=O)N(C)C)c1` (stereo not given), for which, in [1], the IC50 is above 10 µM.
On to `CC(C)NS(=O)(=O)c1cc(NC(=O)CCl)ccc1Cl`, for which, in data set [2], the inhibition constant Ki stood at 4.8 µM. Moreover, the Activity in [4] stood at 36%. Besides, in data set [1], the IC50 worked out at 0.07 µM. This molecule also registered a Kinact in [6] of 3 min⁻¹.
On the same counts, the results for `CN(C)S(=O)(=O)c1cc(C2CO2)ccc1Cl` (stereo not given) are 5 µM, 43.7%, 1.2 µM and 0.47 min⁻¹.
On the same counts, the results for `COCCN(C)S(=O)(=O)c1cc(NC(=O)CCl)ccc1Cl` are 6.9 µM, 61.3%, 0.08 µM and 0.61 min⁻¹.
Turning to `CN(C)S(=O)(=O)c1cc(NC(=O)CCl)ccc1Cl`, the solubility kinetic at 0.5 h in data set [10] and in data set [15] was 0.05 to 0.1 mg/mL (≈ 161 to 321 µM) each time. The half-life at 1 µM was 7 min in [11] and below 2 min in data set [13]. The molecule further came in with a concentration at 1 h in data set [8] of 0.0321 µM. The Activity in data set [4] was determined as 66.8%. The Stability result in [12] and in data set [14] was “Unstable” in each case. Moreover, the peak concentration (Cmax) in [5] came to 9.38 µM.
`COCCCN(C)S(=O)(=O)c1cc(NC(=O)CCl)ccc1Cl`: the Activity in [4] worked out at 41.5%. Besides, in [1], the IC50 turned out to be 0.16 µM.
For `CN(C)S(=O)(=O)c1cc(NC(=O)CCl)ccc1C(F)(F)F`, in [2], the Ki turned out to be 1.2 µM. In data set [4], the Activity was determined as 27.5%. Further, the IC50 in data set [1] stood at 0.06 µM. Moreover, the Kinact in [6] was 1.1 min⁻¹. Also, the concentration at 5 min in data set [9] worked out at 11.6 µM. In addition, the concentration at 2 h in [16] was 0.0015 µM.
Take `CN(C)S(=O)(=O)c1cc(NC(=O)CCl)ccc1Br`: the IC50 in [1] is 0.15 µM.
Same read-out and setting: next, `CN(C)S(=O)(=O)c1cc(NC(=O)CCl)ccc1-c1ccccc1`: 0.71 µM.
Turning to `COCCNS(=O)(=O)c1cc(NC(=O)CCl)ccc1Cl`, the inhibition constant (Ki) in [2] was determined as 2.5 µM. Moreover, in data set [4], the Activity was found to be 47.8%. In addition, the IC50 in [1] turned out to be 0.03 µM. Further, in [6], the Kinact worked out at 0.8 min⁻¹.
As to `CN(C)S(=O)(=O)c1cc(CCS(=O)(=O)F)ccc1Cl`, the IC50 in data set [1] was above 10 µM.
Take `CN(C)S(=O)(=O)c1cc(CS(=O)(=O)F)ccc1Cl`: in data set [2], the inhibition constant Ki came to 9.6 µM. Further, the Activity in [4] amounted to 39.8%. The IC50 in data set [1] turned out to be 0.8 µM. This molecule returned a Kinact in data set [6] of 2.3 min⁻¹.
`COCCCNS(=O)(=O)c1cc(NC(=O)CCl)ccc1Cl`: the inhibition constant (Ki) in [2] amounted to 9.9 µM. Further, the IC50 in [1] was 0.11 µM. The Kinact in data set [6] turned out to be 1.3 min⁻¹.
For the molecule `CN(C)S(=O)(=O)c1cc(NC(=O)CC#N)ccc1Cl`, the IC50 in data set [1] was above 100 µM.
On the same count and under the same terms, next, `CN(C)S(=O)(=O)c1cc(CC2CO2)ccc1Cl` (stereo not given): above 100 µM; `CN(C)S(=O)(=O)c1cc(NC(=O)C(N)=O)ccc1Cl`: above 1000 µM.
For the molecule `C=CC(=O)Nc1ccc(Cl)c(S(=O)(=O)N(C)C)c1`, the Activity in [4] worked out at 92.8%.
For `CN(CCO)S(=O)(=O)c1cc(NC(=O)CCl)ccc1Cl`, in data set [1], the 50% inhibitory concentration (IC50) came out at 0.18 µM.
With `CN(C)S(=O)(=O)c1cc(NC(=O)CCl)ccc1OC(F)(F)F`, the IC50 in [1] worked out at 0.21 µM.
